Measurements reported in PubChem BioAssay AID1896 (NMMLSC, 2009).
Calls of active or inactive are those of the source. The rule behind the calls is not given here.

molecular target: Mitogen-activated protein kinase kinase kinase 3 (Homo sapiens) (UniProt Q99759); assay: inhibitors of MEK5 binding to MEKK3, dose response, biochemical, bead multiplex flow cytometry, wildtype (AID 1896); conditions: bead-based multiplex flow cytometry, MEK5-MEKK3 PB1 binding
Sequence (Q99759 whole entry, looked up): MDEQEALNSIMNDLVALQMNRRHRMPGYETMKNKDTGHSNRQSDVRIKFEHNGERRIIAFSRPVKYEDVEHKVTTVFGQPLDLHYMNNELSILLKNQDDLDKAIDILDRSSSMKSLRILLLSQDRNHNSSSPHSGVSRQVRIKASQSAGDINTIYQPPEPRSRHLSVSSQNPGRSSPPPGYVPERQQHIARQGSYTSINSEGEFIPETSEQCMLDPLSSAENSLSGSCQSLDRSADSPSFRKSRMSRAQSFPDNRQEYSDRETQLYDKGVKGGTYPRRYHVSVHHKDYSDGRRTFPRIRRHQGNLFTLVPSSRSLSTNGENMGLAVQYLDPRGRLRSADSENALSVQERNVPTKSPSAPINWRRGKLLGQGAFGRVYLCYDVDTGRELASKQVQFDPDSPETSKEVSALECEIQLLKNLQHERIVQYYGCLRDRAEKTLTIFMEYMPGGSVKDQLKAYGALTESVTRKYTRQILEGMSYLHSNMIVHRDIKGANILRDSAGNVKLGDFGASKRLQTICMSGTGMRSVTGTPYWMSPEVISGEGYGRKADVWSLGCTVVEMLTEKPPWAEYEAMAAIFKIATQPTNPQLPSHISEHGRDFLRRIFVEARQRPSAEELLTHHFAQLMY

EC50 | Structure (SMILES)
> 30 µM (inactive) | C#CCOCCOCCOCCNc1nc(N2CCN(C(=O)[C@H](Cc3cc4ccccc4[nH]3)n3cc([C@@H](N)C(C)CC)nn3)CC2)nc(N2CCN(C(=O)[C@H](CCCCN)n3cc([C@@H](N)CC(C)C)nn3)CC2)n1 (stereo partly drawn)
> 30 µM (inactive) | CN(C)CCNc1ncnc2c1sc1nc(-c3ccccc3)c3c(c12)CCCC3
1.63 µM | N#CC(C#N)=c1ccc2c(c1)N1C(c3ccccc3)=CC(c3ccccc3)C3CCCCC31N=2 (stereo not drawn)
> 30 µM (inactive) | CCCCCCCCCCOC(=O)Cn1c(COc2cccc(OC)c2)[n+](C)c2ccccc21
> 30 µM (inactive) | O=C(Nc1ccc(Cl)cn1)c1ccc2c(Cl)c3c(nc2c1)CCC3
2.83 µM | CCC(/C=C1\Sc2ccc(OC)cc2N1CCO)=C\c1sc2ccc(OC)cc2[n+]1CCO
> 30 µM (inactive) | COC(=O)c1c(C)oc(C)c1S(=O)(=O)N(Cc1ccccc1)C(C)C
> 30 µM (inactive) | CS(=O)(=O)N1N=C(c2ccccc2)CC1c1ccc2c(c1)OCO2 (stereo not drawn)
> 30 µM (inactive) | CC(=O)c1c(C)[nH]c(C(=O)NC2=NCCS2)c1C
> 30 µM (inactive) | C=CC#CC[N+]1(CC#Cc2ccccc2)CCOCC1
5.57 µM | Cc1cc2ccccc2n1CCNC(=O)c1ccccc1
> 30 µM (inactive) | CCCCCc1cc(=O)oc2c(C(CCN3CCCC(C)C3)c3ccc4c(c3)OCO4)c(OC)cc(OC)c12 (stereo not drawn)
> 30 µM (inactive) | CC[n+]1c(/C=C/C=C/N(C(C)=O)c2ccccc2)sc2ccccc21
> 30 µM (inactive) | CCCCCCCCCCCCCCCC[n+]1ccc(/C=N/O)cc1

Second part, the compound before the results:

Structure (SMILES) | EC50
Cc1ccnc(NC(=O)C2(c3cccs3)CCOCC2)c1 | > 30 µM (inactive)
CCCCCc1cc(=O)oc2c(C(CCN3CCCC3)c3ccc(N(C)C)cc3)c(OC)cc(OC)c12 (stereo not drawn) | > 30 µM (inactive)
COc1cc(/C=N/NC(=O)c2cc3ccccc3cc2O)ccc1OCCN1CCCCC1 | > 30 µM (inactive)
COc1ccc(Cn2c(SCc3ccccc3C)nc3cc(OC)c(OC)cc3c2=N)cc1 | > 30 µM (inactive)
CC(=O)Nc1cccc2c1C(=O)N(c1cccc(C)c1)C2=O | > 30 µM (inactive)
C#CCOCCOCCOCCNc1nc(N2CCN(C(=O)C([C@@H](C)CC)n3cc(C(N)COC(=O)C(F)(F)F)nn3)CC2)nc(N2CCN(C(=O)[C@H](CCCCN)n3cc(C(N)[C@H](C)CC)nn3)CC2)n1 (stereo partly drawn) | > 30 µM (inactive)
COc1ccc2nc(C)cc(N/N=C/c3ccc(F)cc3)c2c1 | 8.75 µM
CCOC(=O)c1c(CSC(=N)N)n(-c2ccc(C)cc2)c2cc(Br)c(OC(C)=O)cc12 | > 30 µM (inactive)
N=C(N)SCc1cn(-c2ccccc2)nc1-c1ccc(Br)cc1 | > 30 µM (inactive)
COc1ccc2[nH]c3c(C)c4ccncc4c(C)c3c2c1 | > 30 µM (inactive)

same assay, conditions: bead-based multiplex flow cytometry, MEK5-MEKK3 PB1 binding; measured here: Ki from EC50

Ki [µM] | Structure (SMILES)
1.4 | N#CC(C#N)=c1ccc2c(c1)N1C(c3ccccc3)=CC(c3ccccc3)C3CCCCC31N=2 (stereo not drawn)
2.42 | CCC(/C=C1\Sc2ccc(OC)cc2N1CCO)=C\c1sc2ccc(OC)cc2[n+]1CCO
4.77 | Cc1cc2ccccc2n1CCNC(=O)c1ccccc1
7.49 | COc1ccc2nc(C)cc(N/N=C/c3ccc(F)cc3)c2c1
